# In patent EP0044212B1, “Herbicidal o-alkylsulfonyloxy- and o-alkylsulfonylamino-benzenesulfonamides” (E.I. DU PONT DE NEMOURS AND COMPANY, priority 1980, dated 1982):
# Assays:
# Velvetleaf [1] = assay: Test B pre-emergence on Fallsington silt loam; type: in vivo, Abutilon theophrasti; conditions: 28 days
# From the text: (§1) Two plastic bulb pans were filled with fertilized and limed Fallsington silt loam soil. One pan was planted with corn, sorghum, Kentucky bluegrass and several grassy weeds. The other pan was planted with cotton, soybeans, purple nutsedge (Cyperus rotundus), and several broadleaf weeds. The following grassy and broadleaf weeds were planted: crabgrass (Digitaria sanguinalis), barnyardgrass (Echinochloa crusgalli), wild oats (Avena fatua), johnsongrass (Sorghum halepense), dallisgrass (Paspalum dilatatum), giant foxtail (Setaria faberii), cheatgrass (Bromus secalinus), mustard (Brassica arvensis), cocklebur (Xanthium pensylvanicum), pigweed (Amaranthus retroflexus), morningglory (Ipomoea hederacea), cassia (Cassia tora), teaweed (Sida spinosa), velvetleaf (Abutilon theophrasti), and jimsonweed (Datura stramonium). A 12.5 cm diameter plastic pot was also filed with prepared soil and planted with rice and wheat. Another 12.5 cm pot was planted with sugarbeets. The above four containers were treated pre- emergence with several test compounds within the scope of the invention.
# (§2) Twenty-eight days after treatment, the plants were evaluated and visually rated for response to the chemical treatments utilizing the rating system described previously for Test A. The data are summarized in Table B.
# Teaweed = assay: Test B pre-emergence on Fallsington silt loam; type: in vivo, Sida spinosa; conditions: 28 days
# From the text: as §1, §2
# Rice [2] = assay: Test E application to paddy water after transplanting of rice; type: in vivo
# From the text: (§3) Test samples were formulated and applied directly to the paddy water three days after transplanting of rice. The test was maintained in a greenhouse, and plant response ratings were taken at the stated intervals after application.
# Pigweed = assay: Test B pre-emergence on Fallsington silt loam; type: in vivo, Amaranthus retroflexus; conditions: 28 days
# From the text: as §1, §2
# Mustard = assay: Test B pre-emergence on Fallsington silt loam; type: in vivo, Brassica arvensis; conditions: 28 days
# From the text: as §1, §2
# Cocklebur = assay: Test F over-the-top soil/foliage treatment; type: in vivo, Xanthium pensylvanicum; conditions: soil/foliage spray, ~14 days
# Protocol: (§4) The test chemicals, dissolved in a non-phytotoxic solvent, were applied in an overall spray to the foliage and surrounding […] of selected plant species. […] Approximately fourteen days after treatment, all species were visually compared to untreated controls and rated for response to treatment.
# (§5) All plant species were seeded in Woodstown sandy loam soil and grown in a greenhouse. The following species were grown in soil contained in plastic pots (25 cm diameter by 13 cm deep): soybeans, cotton, alfalfa, corn, rice, wheet, sorghum, velvetleaf (Abutilon theophrasti), sesbania (Sesbania exaltata), Cassia (Cassia tora), morningglory (Ipomoea hederacea), jimsonweed (Datura stramonium), cocklebur (Xanthium pensylvanicum), crabgrass (Digitaria spp.), nutsedge (Cyperus rotundus), barnyardgrass (Echinochloa crusgalli), giant foxtail (Setaria faberii) and wild oats (Avena fatua). The following species were grown in soil in a paper cup (12 cm diameter by 13 cm deep): sunflower, sugarbeets, and mustard. All plants were sprayed approximately 14 days after planting.
# Cotton [3] = assay: Test F over-the-top soil/foliage treatment; type: in vivo; conditions: soil/foliage spray, ~14 days
# In short: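 Seed in sandy loam (Woodstown), grow in greenhouse. Spray compound, dissolved in a non-phytotoxic solvent, over plants and soil at ~14 days after planting. Score response visually versus untreated controls after ~14 days.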
# Soybean = assay: Test C pre-emergence on Fallsington silt loam soil; type: in vivo, soybeans; conditions: 0.03 kg/ha, 28 days
# From the text: (§6) The high herbicidal activity of two of the compounds from within the scope of the invention is evident from the results obtained in this test. The experiment concerned pre-emergence applications on soil. The containers used were 25 cm diameter plastic pots filled with Fallsington silt loam. One set of pots was planted to weeds, the seeds of which were uniformly mixed with the top 1.2 cm layer of soil. The species selected were: johnsongrass (Sorghum halepense), barnyardgrass (Echinochloa crusgalli), crabgrass (Digitaria sanguinalis), giant foxtail (Setaria faberii), velvetleaf (Abutilon theophrasti), jimsonweed (Datura stramonium), mustard (Brassica arvensis), and pigweed (Amaranthus retroflexus). Another set of pots were planted to the following crops with from one to four species per pot: corn (planting depth 3.7 cm), cotton, soybeans, sunflower, Clinton oats, wheat, Black Valentine beans, rice, sorghum, peas, flax, and peanuts (all at 2.5 cm depth), cucumbers, cabbage, alfalfa, safflower, sugarbeets, tomato, spinach, barley, and Kentucky bluegrass (all at 1.2 cm depth). Immediately after planting, the test chemical was applied to the soil surfaces dissolved in a non-phytotoxic solvent. One pot from the weed phase and one of each of the crop species were left untreated for the purpose of comparison. […]
# Peanut = assay: Test C pre-emergence on Fallsington silt loam soil; type: in vivo, peanuts; conditions: 0.03 kg/ha, 28 days
# From the text: as §6
# Jimsonweed [4] = assay: Test F over-the-top soil/foliage treatment; type: in vivo, Datura stramonium; conditions: soil/foliage spray, ~14 days
# Protocol: as §4, §5
# Water Chestnut = assay: Test E application to paddy water after transplanting of rice; type: in vivo, Eleocharis spp.
# From the text: as §3
# Ky. bluegrass = assay: Test C pre-emergence on Fallsington silt loam soil; type: in vivo, Kentucky bluegrass; conditions: 0.03 kg/ha, 28 days
# From the text: as §6
# Cotton [5] = assay: Test B pre-emergence on Fallsington silt loam; type: in vivo; conditions: 28 days
# From the text: as §1, §2
# Sorghum = assay: Test B pre-emergence on Fallsington silt loam; type: in vivo; conditions: 28 days
# From the text: as §1, §2
# Barnyardgrass = assay: Test E application to paddy water after transplanting of rice; type: in vivo, Echinochloa spp.
# From the text: as §3
# Jimsonweed [6] = assay: Test B pre-emergence on Fallsington silt loam; type: in vivo, Datura stramonium; conditions: 28 days
# From the text: as §1, §2
# Velvetleaf [7] = assay: Test F over-the-top soil/foliage treatment; type: in vivo, Abutilon theophrasti; conditions: soil/foliage spray, ~14 days
# Protocol: as §4, §5
# Rice [8] = assay: Test B pre-emergence on Fallsington silt loam; type: in vivo; conditions: 28 days
# From the text: as §1, §2
# Arrowhead = assay: Test E application to paddy water after transplanting of rice; type: in vivo, Sagittaria spp.
# From the text: as §3
compound,measurement,setting,value
"COc1cc(OC)nc(NC(=O)NS(=O)(=O)c2ccccc2OS(C)(=O)=O)n1 [Compound 1, N-[(4,6-Dimethoxypyrimidin-2-yl)aminocarbonyl]-2-hydroxybenzenesulfonamide, methanesulfonate]",Velvetleaf response rating,Velvetleaf [1]; 0.12 kg/ha,10C
same,Teaweed response rating,Teaweed; 0.03 kg/ha,6G
same,Rice 4 Days,Rice [2]; 1 g/ha in paddy water,0
same,Rice 4 Weeks,Rice [2]; 1 g/ha in paddy water,0
same,Rice 4 Days,Rice [2]; 4 g/ha in paddy water,0
same,Rice 4 Weeks,Rice [2]; 4 g/ha in paddy water,0
same,Rice 4 Days,Rice [2]; 8 g/ha in paddy water,0
same,Rice 4 Weeks,Rice [2]; 8 g/ha in paddy water,0
same,Pigweed response rating,Pigweed; 0.03 kg/ha,10C
same,Mustard response rating,Mustard; 0.03 kg/ha,10C
same,Mustard response rating,Mustard; 0.12 kg/ha,10C
same,Cocklebur response rating,Cocklebur; 0.003 kg/ha,5G
same,Cocklebur response rating,Cocklebur; 0.007 kg/ha,7G
same,Cotton response rating,Cotton [3]; 0.003 kg/ha,10C
same,Soybean response rating,Soybean,"4G, 2lH"
same,Peanut response rating,Peanut,6G
same,Jimsonweed response rating,Jimsonweed [4]; 0.003 kg/ha,0
same,Jimsonweed response rating,Jimsonweed [4]; 0.007 kg/ha,0
same,Jimsonweed response rating,Jimsonweed [4]; 0.06 kg/ha,9C
same,Water Chestnut** 4 Weeks,Water Chestnut; 1 g/ha in paddy water,7G
same,Water Chestnut** 4 Weeks,Water Chestnut; 4 g/ha in paddy water,8G
same,Water Chestnut** 4 Weeks,Water Chestnut; 8 g/ha in paddy water,9G
same,Ky. bluegrass response rating,Ky. bluegrass,7G
same,Cotton response rating,Cotton [5]; 0.03 kg/ha,8G
same,Sorghum response rating,Sorghum; 0.12 kg/ha,10C
same,Barnyardgrass* 4 Weeks,Barnyardgrass; 1 g/ha in paddy water,0
same,Barnyardgrass* 4 Weeks,Barnyardgrass; 4 g/ha in paddy water,0
same,Barnyardgrass* 4 Weeks,Barnyardgrass; 8 g/ha in paddy water,0
"Cc1cc(C)nc(NC(=O)NS(=O)(=O)c2ccccc2OS(C)(=O)=O)n1 [Compound 3, N-[(4,6-dimethylpyrimidin-2-yl)aminocarbonyl]-2-hydroxybenzenesulfonamide, methanesulfonate]",Jimsonweed response rating,Jimsonweed [6]; 0.007 kg/ha,0
same,Jimsonweed response rating,Jimsonweed [6]; 0.015 kg/ha,0
same,Velvetleaf response rating,Velvetleaf [1]; 0.007 kg/ha,0
same,Velvetleaf response rating,Velvetleaf [1]; 0.015 kg/ha,0
same,Teaweed response rating,Teaweed; 0.015 kg/ha,0
same,Teaweed response rating,Teaweed; 0.03 kg/ha,4G
same,Teaweed response rating,Teaweed; 0.12 kg/ha,10C
same,Pigweed response rating,Pigweed; 0.007 kg/ha,0
same,Pigweed response rating,Pigweed; 0.12 kg/ha,10C
same,Mustard response rating,Mustard; 0.007 kg/ha,5G
same,Mustard response rating,Mustard; 0.03 kg/ha,10C
same,Mustard response rating,Mustard; 0.12 kg/ha,10C
same,Cocklebur response rating,Cocklebur; 0.003 kg/ha,3G
same,Cotton response rating,Cotton [3]; 0.007 kg/ha,10C
same,Jimsonweed response rating,Jimsonweed [4]; 0.003 kg/ha,0
same,Velvetleaf response rating,Velvetleaf [7]; 0.003 kg/ha,7G
same,Velvetleaf response rating,Velvetleaf [7]; 0.015 kg/ha,5G
same,Cotton response rating,Cotton [5]; 0.007 kg/ha,0
same,Cotton response rating,Cotton [5]; 0.015 kg/ha,0
same,Rice response rating,Rice [8]; 0.007 kg/ha,3G
same,Sorghum response rating,Sorghum; 0.007 kg/ha,2G
same,Sorghum response rating,Sorghum; 0.015 kg/ha,4G
same,Sorghum response rating,Sorghum; 0.03 kg/ha,10C
"CCCS(=O)(=O)Oc1ccccc1S(=O)(=O)NC(=O)Nc1nc(OC)cc(OC)n1 [Compound 36, N-[(4,6-dimethoxypropimidin-2-yl)aminocarbonyl]-2-hydroxybenzenesulfonamide, 1-propanesulfonate]",Jimsonweed response rating,Jimsonweed [6]; 0.06 kg/ha,3G
same,Rice 1 Week,Rice [2]; 25 g/ha in paddy water,0
same,Rice 8 Weeks,Rice [2]; 25 g/ha in paddy water,0
same,Rice 1 Week,Rice [2]; 100 g/ha in paddy water,0
same,Rice 8 Weeks,Rice [2]; 100 g/ha in paddy water,0
same,Arrowhead*** 8 Weeks,Arrowhead; 25 g/ha in paddy water,0
same,Arrowhead*** 8 Weeks,Arrowhead; 100 g/ha in paddy water,0
same,Water Chestnut** 8 Weeks,Water Chestnut; 25 g/ha in paddy water,10C
same,Water Chestnut** 8 Weeks,Water Chestnut; 100 g/ha in paddy water,10C
same,Cotton response rating,Cotton [5]; 0.06 kg/ha,4G
same,Rice response rating,Rice [8]; 0.06 kg/ha,3G
same,Rice response rating,Rice [8]; 0.25 kg/ha,5G
same,Barnyardgrass* 8 Weeks,Barnyardgrass; 25 g/ha in paddy water,0
same,Barnyardgrass* 8 Weeks,Barnyardgrass; 100 g/ha in paddy water,0
"CCCS(=O)(=O)Oc1ccccc1S(=O)(=O)NC(=O)Nc1nc(C)nc(OC)n1 [Compound 39, 2-hydroxy-N-[(4-methoxy-6-methyl-1,3,5-triazin-2-yl)aminocarbonyl]benzenesulfonamide, 1-propanesulfonate]",Pigweed response rating,Pigweed; 0.06 kg/ha,4G
same,Jimsonweed response rating,Jimsonweed [4]; 0.12 kg/ha,0
same,Rice response rating,Rice [8]; 0.06 kg/ha,0
same,Rice response rating,Rice [8]; 0.25 kg/ha,0
same,Sorghum response rating,Sorghum; 0.06 kg/ha,4G
